Source: patent publication US4065620A, “3-(Substituted) vinyl cephalosporins” (Eli Lilly and Company, priority 1971, dated 1977)
Values after ≈ are worked out from the molar mass of the structure shown.

Experiments:
Type in all cases: cell-based
B. subtilis = test: Bioautograph test against B. subtilis; details: at 1 microgram/milliliter
Protocol: Each of the cis-and trans-isomers of tert-butyl 3-(2'-cyanovinyl)-7-phenoxyacetamido-3-cephem-4-carboxylate from Example 17 was in turn treated with 98-100 percent formic acid for 1 hour at room temperature to cleave the tert-butyl ester groups therefrom. After evaporation under reduced pressure of the excess formic acid, the acid residue was separated as an oil.

[1] = tested on: penicillin-resistant Staphylococcus aureus strain V-41; test: Gradient plate in vitro MIC, strain V41; details: V41, G+, read-out: minimum inhibitory concentration (MIC)
Source text: (§1) The data which follow are minimum inhibitory concentrations (MIC) in micrograms of compound per milliliter of agar medium in standard gradient plate in vitro tests against various Gram positive and Gram negative microorganisms. The data given here are for compounds satisfying the general formula [drawing 25] where R and X are as defined in the table which follows:
(§2) 1. The gradient plate procedure used is essentially that described by
(§3) Bryson and Szybalski in 1952 (Science, 116, pp. 45-46). The inoculum
(§4) treatment method used for penicillin-resistant Staphlococci was reported
(§5) by Godzeski et al. in Antimicrobial Agents and Chemotherapy, May, 1961,
(§6) 2. Gram positive microorganism identifications are all
(§7) penicillin-resistant Staphylococcus aureus strains V-41, V-32, X-400,
(§8) V-84. X-400 is also Methicillin-resistant.

[2] = tested on: penicillin-resistant Staphylococcus aureus strain V-32; test: Gradient plate in vitro MIC, strain V32; details: V32, G+; for MIC: Staphylococcus aureus, read-out: minimum inhibitory concentration (MIC)
Source text: as §1, §2, §3, §4, §5, §6, §7, §8

[3] = tested on: penicillin-resistant, Methicillin-resistant Staphylococcus aureus strain X-400; test: Gradient plate in vitro MIC, strain X400; details: X400, G+, penicillin- and Methicillin-resistant; for MIC: Staphylococcus aureus, read-out: minimum inhibitory concentration (MIC)
Source text: as §1, §2, §3, §4, §5, §6, §7, §8

[4] = tested on: penicillin-resistant Staphylococcus aureus strain V-84; test: Gradient plate in vitro MIC, strain V84; details: V84, G+; for MIC: Staphylococcus aureus, read-out: minimum inhibitory concentration (MIC)
Source text: as §1, §2, §3, §4, §5, §6, §7, §8

Schigella sp. N-9 = test: Gradient plate in vitro MIC, N9; details: N9, G-; for MIC: read-out: minimum inhibitory concentration (MIC)
Source text: as §1, §2, §3

Escherichia coli N-10 = test: Gradient plate in vitro MIC, N10; details: N10, G-; for MIC: Escherichia coli, read-out: minimum inhibitory concentration (MIC)
Source text: as §1, §2, §3
(§9) 3. Gram negative microorganism identifications:
N-10 is Escherichia coli

[5] = tested on: Klebsiella pneumonia X-26; test: Gradient plate in vitro MIC, X26; details: X26, G-; for MIC: Klebsiella pneumoniae, read-out: minimum inhibitory concentration (MIC)
Source text: as §1, §2, §3, §9
X-26 is Klebsiella pneumonia

[6] = tested on: Enterobacter aerogenes X-68; test: Gradient plate in vitro MIC, X68; details: X68, G-; for MIC: Klebsiella aerogenes, read-out: minimum inhibitory concentration (MIC)
Source text: as §1, §2, §3, §9
X-68 is Enterobacter aerogenes

[7] = tested on: Salmonella heidellberg X-514; test: Gradient plate in vitro MIC, X514; details: X514, G-; for MIC: Salmonella, read-out: minimum inhibitory concentration (MIC)
Source text: as §1, §2, §3, §9
X-514 is Salmonella heidellberg

[8] = tested on: Pseudomonas aerogenosa X-528; test: Gradient plate in vitro MIC, X528; details: X528, G-; for MIC: Pseudomonas, read-out: minimum inhibitory concentration (MIC)
Source text: as §1, §2, §3, §9
X-528 is Pseudomonas aerogenosa

Serratia marcescens X-99 = test: Gradient plate in vitro MIC, X99; details: X99, G-; for MIC: Serratia marcescens, read-out: minimum inhibitory concentration (MIC)
Source text: as §1, §2, §3, §9
X-99 is Serratia marcescens

[9] = tested on: Gram positive and Gram negative microorganisms; test: Standard gradient plate assay, Gram positive and Gram negative microorganisms
Source text: as §1, §2, §3

Sarcina lutea = test: Bioautograph against Sarcina lutea
Protocol: (§10) A solution of 25 mg. of tert-butyl 7-(2'-tert-butoxycarbonylamino-2'-phenylacetamido)-3-(2'-tert-butoxycarbonylvinyl)-3-cephem-4-carboxylate, prepared as described in Example 19, in 5 cc of 98-100 percent formic acid was allowed to stand for 1 hour at room temperature. After evaporating under reduced pressure the formic acid, the acid residue was taken up in trifluoroacetic acid and the NMR spectrum was taken.

[10] = tested on: Gram positive and Gram negative microorganisms; test: Disc plate assay; details: variety of Gram positive and Gram negative microorganisms
Protocol: as §10

Row | Compound | MIC [1] | MIC [2] | MIC [3] | MIC [4] | MIC (Schigella sp. N-9) | MIC (Escherichia coli N-10) | MIC [5] | MIC [6] | MIC [7] | MIC [8] | MIC (Serratia marcescens X-99) | also measured
1 | N#C/C=C\C1=C(C(=O)O)N2C(=O)C(NC(=O)COc3ccccc3)C2SC1 (single isomer, unassigned; isomer 3) [Example 20 cis-isomer, 3-(2-cyanovinyl)-7-phenoxyacetamido-3-cephem-4-carboxylic acid] | – | – | – | – | – | – | – | – | – | – | – | antibiotic activity zone on bioautograph (B. subtilis): large antibiotic activity zone
2 | CCOC(=O)C=CC1=C(C(=O)O)N2C(=O)C(NC(=O)Cc3cccs3)C2SC1 (stereo not shown) | 6.2 µg/mL (≈ 14.7 µM) | 7.5 µg/mL (≈ 17.8 µM) | > 20 µg/mL | 7.1 µg/mL (≈ 16.8 µM) | 2.6 µg/mL (≈ 6.15 µM) | 3.8 µg/mL (≈ 8.99 µM) | 5.3 µg/mL (≈ 12.5 µM) | 3.3 µg/mL (≈ 7.81 µM) | 4.7 µg/mL (≈ 11.1 µM) | > 50 µg/mL | > 50 µg/mL | –
3 | 3-(2-cyanovinyl)-7-phenoxyacetamido-3-cephem-4-carboxylic acid | – | – | – | – | – | – | – | – | – | – | – | minimum inhibitory concentration (MIC) [2]: 6.1 micrograms of compound per mil; minimum inhibitory concentration (MIC) [3]: > 20 micrograms of compound per mil; minimum inhibitory concentration (MIC) [4]: 3.8 micrograms of compound per mil; minimum inhibitory concentration (MIC) (Schigella sp. N-9): 40.4 micrograms of compound per mil; minimum inhibitory concentration (MIC) (Escherichia coli N-10): 102.0 micrograms of compound per mil; minimum inhibitory concentration (MIC) [5]: 110.0 micrograms of compound per mil; minimum inhibitory concentration (MIC) [6]: 38.2 micrograms of compound per mil; minimum inhibitory concentration (MIC) [7]: 12.1 micrograms of compound per mil; minimum inhibitory concentration (MIC) [8]: 162.0 micrograms of compound per mil; minimum inhibitory concentration (MIC) (Serratia marcescens X-99): 21.0 micrograms of compound per mil
4 | O=C(O)C=CC1=C(C(=O)O)N2C(=O)C(NC(=O)[C@H](O)c3ccccc3)C2SC1 (stereo partly shown) | > 20 µg/mL | > 20 µg/mL | > 20 µg/mL | 11.2 µg/mL (≈ 27.7 µM) | 3.3 µg/mL (≈ 8.16 µM) | 5.7 µg/mL (≈ 14.1 µM) | 5 µg/mL (≈ 12.4 µM) | 1 µg/mL (≈ 2.47 µM) | 0.6 µg/mL (≈ 1.48 µM) | > 50 µg/mL | > 50 µg/mL | –
5 | CCOC(=O)C=CC1=C(C(=O)O)N2C(=O)C(NC(=O)COc3ccccc3)[C@H]2SC1 (stereo partly shown) [Example 3, 3-(2'-ethoxycarbonylvinyl)-7-phenoxyacetamido-3-cephem-4-carboxylic acid] | – | – | – | – | – | – | – | – | – | – | – | activity as an antibiotic in gradient plate tests ([9]; variety of both Gram positive and Gram negative microorganisms): showed activity as an antibiotic
6 | NC(C(=O)NC1C(=O)N2C(C(=O)O)=C(C=CC(=O)O)CS[C@H]12)c1ccccc1 (stereo partly shown) [Example 23, 7-(2'-amino-2'-phenylacetamido)-3-(2'-carboxyvinyl)-3-cephem-4-carboxylic acid] | – | – | – | – | – | – | – | – | – | – | – | antibiotically active zone on bioautograph (Sarcina lutea; acid residue after formic acid/trifluoroacetic acid): only one antibiotically active zone; polarity of the active zone on the bioautograph (Sarcina lutea; compared with cephalexin): more polar than cephalexin; antibiotic activity in disc plate assay [10]: antibiotic activity
7 | N#C/C=C/C1=C(C(=O)O)N2C(=O)C(NC(=O)COc3ccccc3)C2SC1 (single isomer, unassigned; isomer 3) [Example 20 trans-isomer, 3-(2-cyanovinyl)-7-phenoxyacetamido-3-cephem-4-carboxylic acid] | – | – | – | – | – | – | – | – | – | – | – | gradient plate MIC, trans-isomer compared with cis-isomer ([9]; against both Gram positive and Gram negative microorganisms): more active than the cis-isomer; antibiotic activity zone on bioautograph (B. subtilis): large antibiotic activity zone
8 | O=C(O)C=CC1=C(C(=O)O)N2C(=O)C(NC(=O)C(C(=O)O)c3ccccc3)[C@H]2SC1 (stereo partly shown) [7-(2'-carboxy-2'-phenylacetamido)-3-(2'-carboxyvinyl)-3-cephem-4-carboxylic acid] | > 20 µg/mL | > 20 µg/mL | > 20 µg/mL | > 20 µg/mL | 7 µg/mL (≈ 16.2 µM) | 36.5 µg/mL (≈ 84.4 µM) | 35 µg/mL (≈ 80.9 µM) | 2 µg/mL (≈ 4.63 µM) | 1 µg/mL (≈ 2.31 µM) | 29.5 µg/mL (≈ 68.2 µM) | < 8 µg/mL | –
9 | CCOC(=O)C=CC1=C(C(=O)O)N2C(=O)C(NC(=O)C(C(=O)O)c3ccccc3)[C@H]2SC1 (stereo partly shown) [7-(2'-carboxy-2'-phenylacetamido)-3-(2'-ethoxycarbonylvinyl)-3-cephem-4-carboxylic acid] | 7.9 µg/mL (≈ 17.2 µM) | 10.3 µg/mL (≈ 22.4 µM) | > 20 µg/mL | 11.4 µg/mL (≈ 24.8 µM) | 1 µg/mL (≈ 2.17 µM) | 6.3 µg/mL (≈ 13.7 µM) | 2.5 µg/mL (≈ 5.43 µM) | 3 µg/mL (≈ 6.52 µM) | 0.8 µg/mL (≈ 1.74 µM) | 42.2 µg/mL (≈ 91.6 µM) | 0.6 µg/mL (≈ 1.3 µM) | –
